“Also recorded” adds a separate entry of the source.
How the values were obtained:
[1] = tested on: GRP78; assay: GRP78 protein expression (SDS-PAGE, immunoblot) in C6; type: cell-based, rat; settings: for GRP78 expression in C6 after challenge: brief exposure (8 h), FIG. 11; for GRP78 protein expression in C6: graded concentrations, THAP 24 hours, TUN 8 hours
Method: (§1) Astrocytes and C6 were exposed to graded concentration of THAP as indicated in the captions for 24 hours. Thereafter, protein were extracted and run on a SDS-PAGE and immunoblotted with an anti-GRP78 antibody. Filters were exposed to ECL and films were impressed and developed (Panel B). Films were digitalized using a high resolution scanner and analyzed used imageJ (NIH). Densitometric values were averaged and plotted in the graph (Panel A). Loading conditions were checked using GAPDH housekeeping gene.
(§2) Astrocytes and C6 were exposed to TUN for 8 hours at concentrations ranging from 1.25 μg/ml to 10 μg/ml. Proteins were extracted, separated on a SDS-PAGE and immunoblotted. Filters were exposed to ECL and used to impress films (Panel B). Developed films were subsequently digitized with a high resolution scanner and analyzed with the software ImageJ (NIH). Densitometric values were averaged and plotted in the graph (Panel A).
(§3) Cells were treated as specified in the graph labeling. It is evident that glioma cells have enhanced GRP78 expression than astrocytes regardless of the challenging agent. N.T.=untreated; D=DMSO; T=TUN; Th=THAP.

[2] = tested on: GRP78; assay: GRP78 protein expression (SDS-PAGE, immunoblot) in astrocytes; type: cell-based, rat; settings: for GRP78 levels in astrocytes after challenge: brief exposure (8 h), FIG. 11; for GRP78 protein expression in astrocytes: graded concentrations, THAP 24 hours, TUN 8 hours
Method: as §1, §2, §3

[3] = tested on: GRP78; assay: GRP78 protein expression in U87-MG; type: cell-based, human; settings: brief exposure (8 h), FIG. 11
Method: as §3
Also it has been speculated that the increased higher constitutive expression in glioma cells determines their resilience to the hostile growth environment, to pharmacological treatment and to radiotherapy. However, these studies were performed comparing human astrocytes from repositories to several human malignant cell lines both commercially available or from patients. […] Therefore, in light of the preliminary observations, experiments were conducted in order to further investigate the phenomenon with the aim to better understand it. Experiments were performed using primary rat astrocytes and their glioma counterpart, the C6 cells; also, human glioma cells, such as U87-MG, were used. The latter have been widely used in assessing human glioma properties. Unstimulated expression levels of GRP78 were compared in these cells. In FIG. 11 it is possible to view that unstimulated GRP78 expression in these three cell types is very low.

[4] = tested on: caspase 12; assay: Procaspase 12 cleavage in C6; type: cell-based, rat
Method: (§4) Cells were treated with the agents as indicated in the x axis. Subsequently cells were harvested and protein was extracted and then separated via SDS-PAGE and immunoblotted. The arrow highlights the 45 kDa band that results from cleavage of procaspase 12 and corresponding to the active caspase.
(§5) Thereafter, cells were harvested and protein extracted. Procaspase 12 band at 65 kDa was identified. In some of the treatments, the active product at 45 kDa was also detected. […] Conversely, in C6, higher GRP78 levels and the cell environment reflect significant caspase activation. […] Caspase activation in ERSR conditions was also confirmed with a TUNEL based apoptosis detection system in C6. C6 were treated with THAP for 24 hours and thereafter processed for TUNEL accordingly to manufacturer instructions. Staurosporin, a well known inducer of apoptosis in glial cells, was also included as a positive control. High resolution images of the experiments were acquired and image morphometric analysis was performed to determine quantitative parameters of the staining as previously described (Pascale et al., 2004, “Translocation of protein kinase C-betaII in astrocytes requires organized actin cytoskeleton and is not accompanied by synchronous RACK1 relocation.” Glia 46(2): 169-82). […]

[5] = tested on: caspase 12; assay: Procaspase 12 cleavage in astrocytes; type: cell-based, rat
Method: as §4, §5

[6] = tested on: C6; assay: [Ca2+]i measurement in C6; type: cell-based, rat
Source text: (§6) (Statistical analysis it is shown in the inset. Values at the peak of the response have been analyzed using ANOVA followed by T-test, ** indicate P<0.01.).
(§7) Ca^2+ mobilization from ER was caused using an agonist acting via inositol trisphosphate elevation, mimicking physiological responses. In these conditions the dynamics of Ca^2+ transients were observe in these two cell lines. It appears evident that the plateau phase in C6 is consistently larger than in astrocytes.
(§8) Panel A: Challenge of astrocytes with ATP show the unchanged typical spike and plateau response. Panel B: In C6 an oscillatory pattern is readily detectable in response to treatment with TUN.
Tools and protocols have been developed to cleanly observe capacitative Ca^2+ entry (CCE), the phenomenon that allows the replenishment of intracellular Ca^2+ (ICS) stores and make quantitative and qualitative assessments. In particular, in astrocytes, capacitative Ca^2+ entry happens in absence of cytoplasmic Ca^2+ concentration ([Ca^2+]i) elevation (Grimaldi; 2006)(FIG. 1). […] The study was designed to investigate if there was a difference between astrocytes and glial cancer cells in this distinctive homeostatic pattern. The findings presented in this study, indicate that there are striking differences between glial cells and their cancer counterpart. The model utilizes rat cells but the observations extend and apply to human glioma cells as well. When the responses of normal astrocytes and C6 cells to thapsigargin (THAP), an agent able to block SERCA, therefore causing the release of Ca^2+ from the ER, were compared it was evident that C6 was more sensitive to the THAP (FIG. 2). However, the difference can be ascribed to one of many possibilities. […]
(§9) This phase is dependent on the balance of Ca^2+ influx triggered by store depletion and the reuptake in the ER due to SERCA activity. […] To investigate the role of influx triggered by ICS depletion, CCE was analyzed following THAP-induced depletion of ICS. […]

[7] = tested on: astrocytes; assay: [Ca2+]i measurement in astrocytes; type: cell-based, rat
Source text: as §6, §7, §8
Tools and protocols have been developed to cleanly observe capacitative Ca^2+ entry (CCE), the phenomenon that allows the replenishment of intracellular Ca^2+ (ICS) stores and make quantitative and qualitative assessments. In particular, in astrocytes, capacitative Ca^2+ entry happens in absence of cytoplasmic Ca^2+ concentration ([Ca^2+]i) elevation (Grimaldi; 2006)(FIG. 1). […]
as §9

[8] = tested on: p53; settings: cited from earlier work
[9] = tested on: DNA; settings: cited from earlier work

| Compound | EC50 ([1]; Rattus norvegicus, Astrocyte, stated in GRP78 expression experiment, astrocytes and C6, read-out: EC50 of the substance) | GRP78 expression in C6 after challenge [1] | GRP78 protein expression in C6 [1] | GRP78 levels in astrocytes after challenge [2] | GRP78 protein expression in astrocytes [2] | GRP78 expression in U87-MG after challenge [3] | activation of caspase 12 (45 kDa active product) in C6 [4] | activation of caspase 12 in astrocytes [5] | [Ca2+]i elevation in C6 ([6]; 2 μM THAP) | [Ca2+]i elevation in astrocytes ([7]; 2 μM THAP) | p53 activation and p53-dependent killing of tumor cell types [8] | DNA damaging activity [9] | Ca2+ transients in C6 after TUN pretreatment ([6]; challenge with ATP) | Ca2+ transients in astrocytes after TUN pretreatment ([7]; challenge with ATP) |
| --- | --- | --- | --- | --- | --- | --- | --- | --- | --- | --- | --- | --- | --- | --- |
| C/C=C(/C)C(=O)O[C@H]1C(C)=C2[C@H]([C@@H]1OC(=O)CCCCCCC)[C@@](C)(OC(C)=O)C[C@H](OC(=O)CCC)[C@@]1(O)[C@H]2OC(=O)[C@@]1(C)O [THAP, thapsigargin] | 2 to 5 nM | enhanced significantly | stronger elevation; also recorded: dramatically higher elevation of GRP78 | always significantly lower than levels reached in C6 and U87-MG | increased GRP78 expression | enhanced significantly | significant activation of caspase 12 | completely unresponsive | significantly higher than in astrocytes | caused elevation of [Ca^2+]i |  |  |  |  |
| CCN(CC)CCCC(C)Nc1c2ccc(Cl)cc2nc2ccc(OC)cc12 (stereo not drawn) [quinacrine] |  |  |  |  |  |  |  |  |  |  | capable of p53 activation and p53-dependent killing | not found to show DNA damaging activity |  |  |
| tunicamycin |  | enhanced significantly | concentration related elevation of GRP78 protein expression; also recorded: larger in C6 than in astrocytes at every concentration tested | always significantly lower than levels reached in C6 and U87-MG | concentration related elevation of GRP78 protein expression | enhanced significantly | significant activation of caspase 12 | completely unresponsive |  |  |  |  | appearance of [Ca^2+]i oscillations at high frequency and high amplitude | transients were not changed |
